Results from US20070123569A1, “THERAPEUTIC METHODS USING PROSTAGLANDIN EP4 AGONIST COMPONENTS” (ALLERGAN, INC., priority 2005, published 2007).

Tests used:
[1] = test system: AGS cells; assay: Indomethacin-induced apoptosis of AGS gastric epithelial cells (flow cytometry); type: cell-based; settings: FIG. 2
Experimental: Studies similar to those described for Examples 38 to 40 were conducted on cultured human gastric epithelial cells. This cell line, designated as AGS, was purchased from ATCC. […] Prostaglandin EP4 agonist 1 was given at four different concentrations to separate samples of the cells in a serum-free medium. One hour later, indomethacin at 400 μM was added into the culture medium in three of the samples to induce apoptosis of the AGS cells. Twenty four (24) hours after the addition of indomethacin, the cells were collected and processed for flow cytometry analysis. Ten thousand (10,000) cells were sorted for each sample, and the percentage of apoptotic cells was calculated.

[2] = test system: IEC-18 cells; assay: Indomethacin-induced apoptosis of IEC-18 cells (flow cytometry); type: cell-based, rat; settings: 24 h, FIG. 1
Experimental: Rat ileum epithelial cells identified as IEC-18, were purchased from ATCC. The cells were seeded and cultured overnight. In three (3) series of tests, each of PGE2, prostaglandin EP4 agonist 1 and prostaglandin EP4 agonist prodrug 3 was given at one or two concentrations to separate samples of the cells in a serum-free medium. One hour later, the non-steroidal anti-inflammatory drug (NSAID) indomethacin at 100 μM was added into the culture medium to induce apoptosis of the IEC-18 cells. Twenty four (24) hours after the addition of indomethacin, the cells were collected and processed for flow cytometry analysis. Ten thousand (10,000) cells were sorted for each sample, and the percentage of apoptotic cells was calculated.

[3] = test system: gastric mucous cells; assay: BrdU immunostaining of stomach tissue sections from indomethacin-dosed mice; type: in vivo, mouse; settings: given prior to indomethacin, FIG. 7
Experimental: Each of prostagiandin EP4 agonist 1 and PGE 1 analog Misoprostol was given to C57BL/6 mice at two or three concentrations. Twenty four (24) hours and 30 minutes later, the NSAID indomethacin was given at 20 mg/kg to induce stomach lesions and stomach inflammation. Twenty four (24) hours after indomethacin dosing, the mice were sacrificed and the stomach lesions were scored histopathologically and by gross lesion count.
BrdU immunostaining was performed on stomach tissue sections from mice treated with the prostaglandin EP4 agonist 1 and the PGE1 analog Misoprostol. Incorporation of BrdU label, as detected with positive BrdU immunostaining, is indicative of cell growth/regeneration. The abilities of prostaglandin EP4 agonist 1 and the PGE1 analog Misoprostol to regenerate gastric epithelial cells when given prior to indomethacin dosing were compared. The mean percentages of BrdU label incorporated cells in stomach tissue sections and the standard errors of the means from both treatments are shown in FIG. 7.

COc1ccc2c(c1)c(CC(=O)O)c(C)n2C(=O)c1ccc(Cl)cc1 [Indomethacin, indomethacin, reference compound]
apoptosis induced by indomethacin itself ([1]; indomethacin 400 μM, 24 h): about 30%

CCCCC[C@H](O)/C=C/[C@H]1[C@H](O)CC(=O)[C@@H]1C/C=C\CCCC(=O)O [PGE2, prostaglandin E2, reference compound]
reduction of indomethacin-induced apoptosis ([2]; serum-free medium, indomethacin 100 μM added 1 h after compound): about 65%

CC1(C)C(=O)[C@H](C/C=C\CCCC(=O)O)[C@@H](/C=C/C(O)CCc2sc3ccccc3c2Cl)[C@@H]1O (stereo partly drawn) [prostaglandin EP4 agonist 1]
effect on indomethacin-induced apoptosis (in words) ([2]; indomethacin 100 μM): reduced indomethacin-induced apoptosis significantly | apoptosis or cell death with the agonist alone (no indomethacin) ([1]; serum-free medium): very little or substantially no apoptosis or cell death | restoration of regenerative ability of gastric mucous cells, BrdU label (in words) [3]: significant restoration | restoration of regenerative ability of gastric mucous cells injured by indomethacin (BrdU label) ([3]; maximum dose employed): about 25%
